# What was measured:
# Assay type in all cases: in vivo
# [1] = tested on: ducksalad (Heteranthera limosa); assay: Test B flooded paddy test; conditions: Flood, 0 to 100 scale where 0 is no effect and 100 is complete control, 13 to 15 d
# How it was run: (§1)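 Percent control, visually estimated after 13–15 d in the greenhouse on a 0–100 basis, compares treated pots with untreated ones; compound was put into paddy water 3 cm above the soil when plants had two leaves.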
# rice (Oryra sativa) = assay: Test B flooded paddy test; conditions: Flood, 0 to 100 scale where 0 is no effect and 100 is complete control, 13 to 15 d
# How it was run: as §1
# [2] = tested on: sedge, umbrella (small-flower umbrella sedge, Cyperus difformis); assay: Test B flooded paddy test; conditions: Flood, 0 to 100 scale where 0 is no effect and 100 is complete control, 13 to 15 d
# How it was run: as §1
# [3] = tested on: barnyardgrass (Echinochloa crus-galli); assay: Test B flooded paddy test; conditions: Flood, 0 to 100 scale where 0 is no effect and 100 is complete control, 13 to 15 d
# How it was run: as §1
# [4] = tested on: blackgrass (Alopecurus myosuroides); assay: Test A postemergence; conditions: for Blackgrass plant response rating: visual injury rating on 0 to 100 scale (0 no effect, 100 complete control)
# How it was run: (§2)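 Preemergence soil spray on seeded pots or post-emergence spray on 1–2 leaf plants, in loam–sand blend. Greenhouse ~10 d. Visual rating 0–100 against untreated plants.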
# corn (Zea mays) = assay: Test A postemergence; conditions: postemergence; for Corn plant response rating: 125 g ai/ha, visual injury rating on 0 to 100 scale (0 no effect, 100 complete control), approx. 10 d; for Plant response rating, Corn: 500 g ai/ha, 0 to 100 scale, 0 no effect, 100 complete control
# How it was run: as §2
# [5] = tested on: wheat (Triticum aestivum); assay: Test A postemergence; conditions: postemergence; for Wheat plant response rating: 125 g ai/ha, visual injury rating on 0 to 100 scale (0 no effect, 100 complete control), approx. 10 d; for Plant response rating, Wheat: 500 g ai/ha, 0 to 100 scale, 0 no effect, 100 complete control
# How it was run: as §2
# [6] = tested on: pigweed (Amaranthus retroflexus); assay: Test A postemergence; conditions: postemergence; for Pigweed plant response rating: 125 g ai/ha, visual injury rating on 0 to 100 scale (0 no effect, 100 complete control), approx. 10 d; for Plant response rating, Pigweed: 500 g ai/ha, 0 to 100 scale, 0 no effect, 100 complete control
# How it was run: as §2
# [7] = tested on: barnyardgrass (Echinochloa crus-galli); assay: Test A postemergence; conditions: for Barnyardgrass plant response rating: visual injury rating on 0 to 100 scale (0 no effect, 100 complete control)
# How it was run: as §2
# [8] = tested on: ryegrass, Italian (Italian ryegrass, Lolium multiflorum); assay: Test A postemergence; conditions: postemergence; for Ryegrass, Italian plant response rating: 125 g ai/ha, visual injury rating on 0 to 100 scale (0 no effect, 100 complete control), approx. 10 d; for Plant response rating, Ryegrass, Italian: 500 g ai/ha, 0 to 100 scale, 0 no effect, 100 complete control
# How it was run: as §2
# [9] = tested on: ragweed (common ragweed, Ambrosia elatior); assay: Test A postemergence; conditions: postemergence; for Ragweed plant response rating: 125 g ai/ha, visual injury rating on 0 to 100 scale (0 no effect, 100 complete control), approx. 10 d; for Plant response rating, Ragweed: 500 g ai/ha, 0 to 100 scale, 0 no effect, 100 complete control
# How it was run: as §2
# [10] = tested on: giant foxtail (Setaria faberii); assay: Test A postemergence; conditions: postemergence; for Foxtail, Giant plant response rating: 125 g ai/ha, visual injury rating on 0 to 100 scale (0 no effect, 100 complete control), approx. 10 d; for Plant response rating, Foxtail, Giant: 500 g ai/ha, 0 to 100 scale, 0 no effect, 100 complete control
# How it was run: as §2
# Kochia (Kochia scoparia) [11] = assay: Test A postemergence; conditions: postemergence; for Kochia plant response rating: 125 g ai/ha, visual injury rating on 0 to 100 scale (0 no effect, 100 complete control), approx. 10 d; for Plant response rating, Kochia: 500 g ai/ha, 0 to 100 scale, 0 no effect, 100 complete control
# How it was run: as §2
# [12] = tested on: Galium (catchweed bedstraw, Galium aparine); assay: Test A postemergence; conditions: postemergence; for Galium plant response rating: 125 g ai/ha, visual injury rating on 0 to 100 scale (0 no effect, 100 complete control), approx. 10 d; for Plant response rating, Galium: 500 g ai/ha, 0 to 100 scale, 0 no effect, 100 complete control
# How it was run: as §2
# [13] = tested on: pigweed (Amaranthus retroflexus); assay: Test A preemergence; conditions: for Plant response rating, Pigweed: 125 g ai/ha, preemergence, 0 to 100 scale (0 no effect, 100 complete control); for Pigweed plant response rating (0 to 100 scale, 0 is no effect, 100 is complete control): visual injury approx. 10 d
# [14] = tested on: barnyardgrass (Echinochloa crus-galli); assay: Test A preemergence; conditions: for Plant response rating, Barnyardgrass: 125 g ai/ha, preemergence, 0 to 100 scale (0 no effect, 100 complete control); for Barnyardgrass plant response rating (0 to 100 scale, 0 is no effect, 100 is complete control): visual injury approx. 10 d
# How it was run: as §2
# [15] = tested on: ryegrass, Italian (Italian ryegrass, Lolium multiflorum); assay: Test A preemergence; conditions: for Plant response rating, Ryegrass, Italian: 125 g ai/ha, preemergence, 0 to 100 scale (0 no effect, 100 complete control); for Ryegrass, Italian plant response rating (0 to 100 scale, 0 is no effect, 100 is complete control): visual injury approx. 10 d
# How it was run: as §2
# [16] = tested on: ragweed (common ragweed, Ambrosia elatior); assay: Test A preemergence; conditions: for Plant response rating, Ragweed: 125 g ai/ha, preemergence, 0 to 100 scale (0 no effect, 100 complete control); for Ragweed plant response rating (0 to 100 scale, 0 is no effect, 100 is complete control): Preemergence, 500 g ai/ha, visual injury approx. 10 d
# How it was run: as §2
# [17] = tested on: giant foxtail (Setaria faberii); assay: Test A preemergence; conditions: for Plant response rating, Foxtail, Giant: 125 g ai/ha, preemergence, 0 to 100 scale (0 no effect, 100 complete control); for Foxtail, Giant plant response rating (0 to 100 scale, 0 is no effect, 100 is complete control): visual injury approx. 10 d
# How it was run: as §2
# Kochia (Kochia scoparia) [18] = assay: Test A preemergence; conditions: for Plant response rating, Kochia: 125 g ai/ha, preemergence, 0 to 100 scale (0 no effect, 100 complete control); for Kochia plant response rating (0 to 100 scale, 0 is no effect, 100 is complete control): visual injury approx. 10 d
# How it was run: as §2
# [19] = 125 g ai/ha, postemergence, approx. 10 d
# [20] = 500 g ai/ha, postemergence, 0 to 100 scale, 0 no effect, 100 complete control
# [21] = Postemergence, 125 g ai/ha, visual injury, 0 to 100 scale (0 no effect, 100 complete control), approx. 10 d
# [22] = Preemergence, 500 g ai/ha, 0 is no effect, 100 is complete control
SMILES,"Plant response rating, Blackgrass [4, 20]",Corn plant response rating (corn (Zea mays)),"Plant response rating, Corn (corn (Zea mays))",Wheat plant response rating [5],"Plant response rating, Wheat [5]",Pigweed plant response rating [6],"Plant response rating, Pigweed [6]","Plant response rating, Barnyardgrass [7, 20]","Ryegrass, Italian plant response rating [8]","Plant response rating, Ryegrass, Italian [8]",Ragweed plant response rating [9],"Plant response rating, Ragweed [9]","Foxtail, Giant plant response rating [10]","Plant response rating, Foxtail, Giant [10]",Kochia plant response rating (Kochia (Kochia scoparia) [11]),"Plant response rating, Kochia (Kochia (Kochia scoparia) [11])",Galium plant response rating [12],"Plant response rating, Galium [12]","Plant response rating, Pigweed [13]","Plant response rating, Barnyardgrass [14]",other results
CN1CC(c2ccc(C(F)(F)F)c(F)c2)C(C(=O)Nc2ccc(F)cc2F)C1=O (centres unmarked) [Compound 398],60,60,70,20,70,50,60,90,20,50,0,0,80,90,60,80,50,60,70,90,"Plant response rating, Ducksalad ([1]; 250 g ai/ha): 80; Plant response rating, Rice (rice (Oryra sativa); 250 g ai/ha): 20; Plant response rating, Sedge, Umbrella ([2]; 250 g ai/ha): 0; Plant response rating, Barnyardgrass ([3]; 250 g ai/ha): 60; Blackgrass plant response rating [4, 19]: 40; Barnyardgrass plant response rating [7, 19]: 90; Pigweed plant response rating (0 to 100 scale, 0 is no effect, 100 is complete control) ([13]; Preemergence, 500 g ai/ha): 90; Barnyardgrass plant response rating (0 to 100 scale, 0 is no effect, 100 is complete control) ([14]; Preemergence, 500 g ai/ha): 90; Plant response rating, Ryegrass, Italian [15]: 30; Ryegrass, Italian plant response rating (0 to 100 scale, 0 is no effect, 100 is complete control) ([15]; Preemergence, 500 g ai/ha): 70; Plant response rating, Ragweed [16]: 20; Ragweed plant response rating (0 to 100 scale, 0 is no effect, 100 is complete control) [16]: 30; Plant response rating, Foxtail, Giant [17]: 90; Foxtail, Giant plant response rating (0 to 100 scale, 0 is no effect, 100 is complete control) ([17]; Preemergence, 500 g ai/ha): 90; Plant response rating, Kochia (Kochia (Kochia scoparia) [18]): 70; Kochia plant response rating (0 to 100 scale, 0 is no effect, 100 is complete control) (Kochia (Kochia scoparia) [18]; Preemergence, 500 g ai/ha): 90"
Cc1c(F)ccc(NC(=O)C2C(=O)NCC2c2cccc(OC(F)(F)C(F)F)c2)c1F (centres unmarked) [Compound 460],40,20,40,0,20,20,40,70,30,30,0,0,90,80,0,30,50,60,30,80,"Plant response rating, Ducksalad ([1]; 250 g ai/ha): 100; Plant response rating, Rice (rice (Oryra sativa); 250 g ai/ha): 0; Plant response rating, Sedge, Umbrella ([2]; 250 g ai/ha): 0; Plant response rating, Barnyardgrass ([3]; 250 g ai/ha): 40; Blackgrass plant response rating [4, 19]: 20; Barnyardgrass plant response rating [7, 19]: 60; Pigweed plant response rating (0 to 100 scale, 0 is no effect, 100 is complete control) ([13]; Preemergence, 500 g ai/ha): 30; Barnyardgrass plant response rating (0 to 100 scale, 0 is no effect, 100 is complete control) ([14]; Preemergence, 500 g ai/ha): 80; Plant response rating, Ryegrass, Italian [15]: 40; Ryegrass, Italian plant response rating (0 to 100 scale, 0 is no effect, 100 is complete control) ([15]; Preemergence, 500 g ai/ha): 60; Plant response rating, Ragweed [16]: 0; Ragweed plant response rating (0 to 100 scale, 0 is no effect, 100 is complete control) [16]: 20; Plant response rating, Foxtail, Giant [17]: 90; Foxtail, Giant plant response rating (0 to 100 scale, 0 is no effect, 100 is complete control) ([17]; Preemergence, 500 g ai/ha): 90; Plant response rating, Kochia (Kochia (Kochia scoparia) [18]): 0; Kochia plant response rating (0 to 100 scale, 0 is no effect, 100 is complete control) (Kochia (Kochia scoparia) [18]; Preemergence, 500 g ai/ha): 40"
COc1c(F)ccc(NC(=O)C2C(=O)NCC2c2cccc(C(F)(F)F)c2)c1F (racemic) [Compound 386],70,40,80,30,50,0,10,80,20,50,0,30,70,80,0,0,50,60,0,80,"Plant response rating, Ducksalad ([1]; 500 g ai/ha): 70; Plant response rating, Rice (rice (Oryra sativa); 500 g ai/ha): 15; Plant response rating, Sedge, Umbrella ([2]; 500 g ai/ha): 0; Plant response rating, Barnyardgrass ([3]; 500 g ai/ha): 60; Plant response rating, Blackgrass [4, 21]: 50; Plant response rating, Barnyardgrass [7, 21]: 70; Pigweed plant response rating (0 to 100 scale) [13, 22]: 0; Barnyardgrass plant response rating (0 to 100 scale) [14, 22]: 80; Plant response rating, Ryegrass, Italian [15]: 30; Ryegrass, Italian plant response rating (0 to 100 scale) [15, 22]: 50; Plant response rating, Ragweed [16]: 0; Plant response rating, Foxtail, Giant [17]: 80; Foxtail, Giant plant response rating (0 to 100 scale) [17, 22]: 90; Plant response rating, Kochia (Kochia (Kochia scoparia) [18]): 0; Kochia plant response rating (0 to 100 scale) (Kochia (Kochia scoparia) [18]; [22]): 0"

# Source: patent US12077503B2, “Substituted cyclic amides and their use as herbicides” (FMC CORPORATION, priority 2015, dated 2024)
